Results: patent US20150352134A1, “COMPOSITION FOR TOPICAL SKIN APPLICATION CONTAINING GINSENOSIDE F2 DERIVED FROM HYDROPONIC GINSENG” (AMOREPACIFIC CORPORATION, priority 2012, published 2015)

Key:
[1] = test system: collagenase (MMP-1); assay: Collagenase (MMP-1) expression in human fibroblasts (ELISA); type: cell-based; settings: 10 μg/mL for 24 hours; not treated control = 100
Procedure: The ginsenoside F2 of the present invention is measured in regards to the inhibitory effect on the generation of collagenase in comparison with retinoic acid. […] The human fibroblasts are treated with ginsenoside F2 or retinoic acid at a concentration of 10 μg/mL for 24 hours. Then, the cell culture medium is collected. The production yield of collagenase in the collected cell culture medium is measured using a collagenase measurement instrument commercially available (Catalog #. RPN 2610, USA Amersham Pharma Inc.). Firstly, the collected cell culture medium is put in each well of a 96-well plate uniformly coated with the primary collagenase antibodies and then subjected to antigen-antibody reactions in a thermostat container for 3 hours. After 3 hours, the secondary collagenase antibodies coupled to the chromophore groups are put in each well of the 96-well plate and then allowed to react for more 15 minutes. […] The intensity of yellowness in the reaction mixture is varied depending on the progress of the reaction. The absorbance of the yellow-colored 96-well plate is measured at 405 nm with a spectrophotometer, and the expression level of collagenase is calculated according to the following mathematical formula 2. In this regard, the absorbance of the cell culture medium collected from the group not treated with the composition of the present invention is considered as the absorbance of the control. [formula]

[2] = test system: B16/F10 melanoma cells; assay: Melanogenesis inhibition in B16/F10 melanoma cells; type: cell-based; settings: sample containing 0.001 wt. % of test substance; 3-day cultivation
Procedure: As a test substance, a sample containing 0.001 wt. % of ginsenoside F2 or kojic acid is added to a culture medium of B16/F10 melanoma cells (available from Korean Cell Line Bank) at a predetermined concentration. The culture medium is eliminated after 3-day cultivation. The cells are washed with PBS and dissolved in 1N NaOH. Then, the absorbance at 405 nm is measured. The control is the cells not treated with any test substance. In comparison with the melanin content in the control group, the inhibitory ability of each test substance against melanogenesis is measured. […] [formula]

[3] = test system: DP6 (rat immortalized dermal papilla cell) line; assay: Proliferation of hair follicle dermal papilla cells (WST-1); type: cell-based; settings: 24 hours, not treated control = 100
Source text: The keratin protein constituting hair is produced by the keratinocytes in the hair roots, and the keratinocytes are differentiated from the hair papilla cells. To evaluate the composition of the present invention in regards to the effect to enhance the activity of hair papilla cells, the present invention uses DP6 (rat immortalized dermal papilla cell) line (Wendy Filsell, Journal of Cell Science 107, 1761-1772 (1994)). The hair papilla cells used in the present invention are a cell line isolated from the hair roots of male PVG rats by the microdissection method and cultured with DMEM (Dulbecco's modified eagle's medium, Gibco BRL, Gaithersburg, Md., U.S.A.) containing 10% FBS (Fetal Bovine Serum) in an incubator under the conditions of 5% CO2 and 37° C. for 24 hours. DP6 is put in the 96-well plate, cultured in an incubator at 37° C. for 24 hours and treated with the ginsenoside F2 of the present invention independently at a concentration of 5 ppm, 10 ppm, or 20 ppm. 24 hours after the treatment, the cell proliferation ability is measured using a WST-1 kit (Roche).

[4] = test system: Melanin-a cells; assay: Melanogenesis promotion in Melanin-a cells; type: cell-based; settings: 3 days, DMSO (0.1%) = 100
Procedure: Melanin-a cells are injected in a 24-well microtiter plate at a rate of 50,000 cells per well with an RPMI medium containing 5% fetal bovine serum, 100 IU penicillin G, and 0.2 μM TPA. Next day, the cells are treated with ginsenoside F2 as a test substance independently at the final concentration of 10 ppm or 50 ppm. The negative control is treated with 0.1% DMSO, and the positive control is treated with 100 μM IBMX. Then, the cells are cultured at 37° C. for 3 days. The wells of the plate are washed with PBS, and 100 μl of 1N NaOH is added to each well to dissolve melanin in the cells. The absorbance of the dissolved melanin is measured at 405 nm with a microplate reader. The effect of the ginsenoside F2 to promote melanogenesis is evaluated in comparison with that of the control groups.

[5] = test system: tyrosinase; assay: Tyrosinase expression in melanocytes (Western Blot); type: cell-based; settings: 501me1 cell line, IBMX 100 μM, ginsenoside 10 ppm
Procedure: 501me1 cell line is injected in each well of a 6-well microtiter plate at a rate of 500,000 cells/well. The cell line in each well is treated with 0.1% of DMSO as the negative control group, 100 μM of IBMX as the positive control group, or ginsenoside 10 ppm of F2 as the test group, and cultured at 37° C. for 24 hours, 48 hours, or 72 hours, to obtain proteins. The proteins thus obtained are subjected to Western Blot using MITF and tyrosinase antibodies. Protein extraction and Western Blot are performed using the standard methods known in the art.

[6] = test system: mouse with vitiligo (C57b1/6-Mitf^mi-vit); assay: Grey hair prevention: melanin in newly grown hair of mouse with vitiligo; type: in vivo; settings: applied twice a day, about 3 weeks, 50 mM IBMX, 2.5% ginsenoside F2
Procedure: A mouse with vitiligo (C57b1/6-Mitf^mi-vit) is purchased from The Jackson Lab in U.S.A. The testing method on the grey hair inhibitory effect using a mouse with lots of grey hair is carried out as follows. A 12-week old mouse is subjected to depilation on the back side. The area of the depilated region is controlled to be the same to every object. From the next day of the depilation, the grey hair inhibitory substances are applied on the depilated region twice a day. The vehicle for the grey hair inhibitory substances is the mixture of EtOH, 1,3-BG and DW (3:2:5 in volume ratio). The liquid containing the vehicle alone is the negative control, the liquid containing the vehicle in combination with 50 mM IBMX is the positive control, and the liquid containing the vehicle in combination with 2.5% ginsenoside F2 is the test group. When the difference in the grey hair inhibitory effect between the substances is visually recognizable in about 3 weeks, the newly grown hair is collected to measure the quantity of melanin produced in the hair. The quantity of melanin in the hair is measured using esperase (Novozyme) strains that are a protein hydrolase. Esperase is dissolved in a buffer solution (50 mM tris-HCl, 5 mM DTT, pH 9.3) to a concentration of 1 NPU/ml to prepare a reaction buffer. 5 mg of mouse hair is put in 1 ml of the reaction buffer, which is stirred at a speed of 1,000 rpm at 37° C. for 13 hours to cause the reaction and then subjected to a momentary centrifugal isolation to separate the reactant solution from hair. The reactant solution thus obtained is placed in each well of a 96-well plate, and the absorbance at 405 nm is measured to determine the amount of melanin in the reactant solution. When a mouse with vitiligo and lots of grey hair is treated with the negative control substance, the positive control substance, or the test substance, the efficacies are visually observed, and the melanin in hair is quantitatively analyzed.

Compound | Collagenase expression level(%) [1] [%] | Melanogenesis inhibition rate (%) [2] [%] | Cell proliferation ability (%) ([3]; 5 ppm) | Cell proliferation ability (%) ([3]; 10 ppm) | Cell proliferation ability (%) ([3]; 20 ppm) | Yield of Melanin (%) ([4]; 10 ppm) | Yield of Melanin (%) ([4]; 50 ppm) | Tyrosinase (Western Blot, in comparison with 100 of the negative control group) ([5]; 24 hrs) | Tyrosinase (Western Blot, in comparison with 100 of the negative control group) ([5]; 48 hrs) | Tyrosinase (Western Blot, in comparison with 100 of the negative control group) ([5]; 72 hrs) | Amount of melanin (%) with respect to control [6] [%]
CC(C)=CCC[C@](C)(O[C@@H]1O[C@H](CO)[C@@H](O)[C@H](O)[C@H]1O)[C@H]1CC[C@]2(C)[C@@H]1[C@H](O)C[C@@H]1[C@@]3(C)CC[C@H](O[C@@H]4O[C@H](CO)[C@@H](O)[C@H](O)[C@H]4O)C(C)(C)[C@@H]3CC[C@]12C [Ginsenoside F2, ginsenoside F2] | 73 | 72 | 116 | 122 | 138 | 113 | 129 | 150 | 182 | 211 | 110.8
CC(C)=CCC[C@](C)(O[C@@H]1O[C@H](CO[C@@H]2O[C@H](CO)[C@@H](O)[C@H](O)[C@H]2O)[C@@H](O)[C@H](O)[C@H]1O)[C@H]1CC[C@]2(C)[C@@H]1[C@H](O)C[C@@H]1[C@@]3(C)CC[C@H](O[C@@H]4O[C@H](CO)[C@@H](O)[C@H](O)[C@H]4O[C@@H]4O[C@H](CO)[C@@H](O)[C@H](O)[C@H]4O)C(C)(C)[C@@H]3CC[C@]12C [Ginsenoside Rb1] | 74 | 61 | 114 | 118 | 127 | 112 | 120 | 149 | 165 | 189 | 107.1
